The results in this text go back to US10813859B2, “Wrinkle ameliorating agent” (POLA CHEMICAL INDUSTRIES, INC., priority 2016, dated 2020).

Data set [1] concerns hyaluronan synthetase gene (HAS1) in normal human epidermal keratinocyte. Nature of the data set: Test for confirming expression-increasing effect of epidermal hyaluronan synthetase gene. Type of data set: cell-based. The conditions noted are these: 0.2% by mass in medium, 24 hours; qPCR, ACTB internal standard; FIG. 5. On the procedure: Normal human epidermal keratinocyte (produced by Kurabo Industries Ltd.) was inoculated in a 24-well plate at […] cells/well, and incubated overnight at 37° C. in a 5% CO2 environment. The culture medium was exchanged with a medium containing 0.2% by mass of Compound 1, or glycerol (produced by Wako Pure Chemical Industries, Ltd.) and cultured at 37° C. in a 5% CO2 environment for 24 hours.
Using a mRNA recovery kit (FastLane Cell SYBR Green Kit, produced by Qiagen N.V.), mRNA was extracted by a conventional method. Using a qPCR kit (One Step SYBR PrimeScript RT-PCR Kit II, produced by Takara Bio Inc.), the expression level of the hyaluronan synthetase gene (HAS 1) was analyzed by qPCR using ACTB as an internal standard (7500 Real-Time PCR System, produced by Applied Biosystems). Data analysis was carried out by the ΔΔCt method.
The respective relative values were calculated with respect to the expression level of the gene in a medium not containing Compound 1 and glycerol (non-addition group) as 1.

Data set [2] in a line: Moisture absorbing property confirmation test. It is filed as physicochemical. The conditions noted are these: humidity 75%, 25° C. On the procedure:
Compound 1 was precisely weighed in a 1 g weighing bottle, left in a desiccator with a humidity at 75% (a saturated aqueous solution of sodium chloride) in an open state, and stored at 25° C. The weight was measured from the start of the storage until 30 days thereafter, and the coefficient of moisture absorption was determined by the following formula. Coefficient of moisture absorption (%)=(M3−M2)/(M2−M1)×100
M1: The mass of the weighing bottle (g)
M2: The mass of the weighing bottle containing a sample at the start of the storage (g)
M3: The mass of the weighing bottle containing the sample after the storage (g)

Consider `OCC(O)COC1CCCCC1` (centres unmarked) [Compound 1, 3-cyclohexyloxy-1,2-propanediol], for which the “expression level of the hyaluronan synthetase gene (HAS 1) compared to the non-addition group” value in data set [1] is “significantly larger”. Moreover, the moisture absorbing property result in data set [2] (up to 30 days) is reported as “confirmed”. The “Coefficient of moisture absorption (mean value, n = 3)” value turned out to be 13.2% in data set [2] (storage time 1 day); 19.0% in data set [2] (storage time 3 days); 20.5% in data set [2] (storage time 7 days); 21.0% in data set [2] (storage time 14 days); 21.2% in data set [2] (storage time 30 days).
Consider `OCC(O)CO` [glycerol, reference compound], for which, in data set [1], the “expression level of the hyaluronan synthetase gene (HAS 1) compared to the non-addition group” value is reported as “no significant difference”.
